Patent publication US10286022B2, “Medicinal composition of extract of seed of emblica officinalis and method of preparing the same” (priority 2013, dated 2019)

Test system: cholesterol fed rabbits
Test: Hypolipidemic activity in cholesterol fed rabbits (Example 23)
Format: in vivo, rabbit
Protocol: The amla seed extract as prepared in example 1 was evaluated for hypolipidemic activity in experimental rabbits. Male NZ white rabbits weighing 1.5-2.0 kg were used for the experiment. They were housed in a temperature-controlled room (25±2° C.) in clean stainless steel cages with ‘12 h light and 12 h dark’ cycles and fed with normal pellet diet and water ad libitum.
After the acclimatization period of 10 days, blood samples were collected from marginal ear vein of all the rabbits. The blood was allowed to clot and then centrifuged at 3000 rpm for 10 min and the serum was carefully drawn and collected into separate tubes. The serum was analyzed for total cholesterol, triglycerides, high density lipoproteins (HDL), low density lipoproteins (LDL) and very low density lipoproteins (VLDL) levels using auto-analyzer.
After taking baseline lipid profile the animals were divided into four groups having six animals in each group. Following treatment was given to the animals for the three months:
Blood samples were collected from all the rabbits after 3 months of treatment and serum was analyzed for lipid profile. After blood collection the animals were sacrificed after injecting pentobarbitone and aorta was dissected out, washed with saline and preserved in 10% formalin for histopathology. The sections were cut using microtome and stained with heamatoxylin & eosin dye and mounted on glass slides. The slides were observed under microscope and aortic intima media thickness (IMT) was measured by histomorphometry.

[1] = after 3 months cholesterol 100 mg/kg + 10 mg/kg

Which “effect on total cholesterol and triglyceride level” value (10 mg/kg, 3 months, compared to untreated control group) does the source give for `CC(C)c1c(C(=O)Nc2ccccc2)c(-c2ccccc2)c(-c2ccc(F)cc2)n1CC[C@@H](O)C[C@@H](O)CC(=O)O` [Atorvastatin] here?
Its value is “decreased the total cholesterol and triglyceride level significantly”.

What about the “HDL After” value [1] of the same compound?
Its value is 20.37 mg/dL.

And the “LDL After” value [1]?
The value was 82.8 mg/dL.

What about the “TC After” value [1] of the same compound?
Its value is 118.9 mg/dL.

And the “TG After” value [1]?
Its value is 78.67 mg/dL.

And the “VLDL After” value [1]?
Its value is 15.73 mg/dL.

And the “Aortic intima media thickness” value (after 3 months cholesterol 100 mg/kg + 10 mg/kg, histomorphometry)?
Its value is 112.36 μm.

And the “HDL Before” value (baseline, 10 mg/kg group)?
The value was 14.15 mg/dL.

And the “LDL Before” value (baseline, 10 mg/kg group)?
Its value is 27.88 mg/dL.

What about the “TC Before” value (baseline, 10 mg/kg group) of the same compound?
The value was 53.69 mg/dL.

What about the “TG Before” value (baseline, 10 mg/kg group) of the same compound?
The value was 58.28 mg/dL.

What about the “VLDL Before” value (baseline, 10 mg/kg group) of the same compound?
The value was 11.66 mg/dL.
